Results taken from patent US20140011755A1, “Cardiac Glycosides for Treating Autoimmune Disease” (Department of Veterans Affairs, priority 2010, published 2014).

Tests used:
[1] = test system: collagen-induced arthritis (CIA); type: in vivo, DBA1/J mice
[2] = test system: collagen-induced arthritis (CIA) joints; type: in vivo, DBA1/J mice; settings: cross-sectioned ankle joints, CIA prevention groups
Procedure: FIG. 7. Cardiac glycosides reduce joint pathology in the CIA mouse model for rheumatoid arthritis. Blinded scoring was performed on histologic sections of joints harvested from mice at the end of a CIA prevention study (A-C). Joints derived from three representative mice belonging to each prevention group (A-C) were decalcified, fixed and stained with tolidine blue, followed by scoring by an examiner blinded to treatment status for the severity of synovitis (inflammation), pannus (growth of the synovial lining), and erosions of bone. (D-G) Joints derived from three representative mice belonging to each prevention group were decalcified, fixed, and stained with hematoxylin and eosin. Cross-sectioned ankle joints from vehicle (D), digitoxin (E), ouabain (F) and proscillaridin (G) treated mice are presented. Error bars represent SEM, and asterisks indicate P-values less than 0.05 by Mann-Whitney test.
In treatment studies, mice were randomly enrolled in treatment groups and treatment commenced when the average clinical score was at or above 2. […] Daily dosing commenced upon enrollment at the abovementioned concentrations. […] Double-blinded histopathology scoring was conducted of cross-sectioned joints taken from cardiac glycoside and vehicle recipients. […] The results obtained from these animal studies indicate that cardiac glycosides are effective at reducing the clinical manifestations of disease and reducing joint pathology in mice with collagen arthritis.
The effects of the different cardiac glycoside treatments on CIA pathology was analyzed by histological scoring. Inflammatory cell infiltrate, synovial hyperplasia, pannus formation and articular cartilage and bone deterioration were evaluated in sectioned paws of treated mice at specific time-points throughout the disease course. […] The ELISA was developed and read using BD ELISA development kit. […]

[3] = test system: anti-type II collagen antibodies; type: in vivo; settings: sera of 6 mice per prevention group, ANOVA
Procedure: FIG. 10. Cardiac glycosides reduce immunoglobulin levels in CIA mice. ELISAs for anti-type II collagen antibodies were performed on sera derived from 6 representative mice of each prevention group (A, B). Isotype specific antibodies for IgG1 and IgG2a (A) and IgM (B) were utilized. […] Statistical analysis was performed using ANOVA and asterisks indicate points at which the P-values were less than 0.001.
The effects of the different cardiac glycoside treatments on CIA pathology was analyzed by histological scoring. Inflammatory cell infiltrate, synovial hyperplasia, pannus formation and articular cartilage and bone deterioration were evaluated in sectioned paws of treated mice at specific time-points throughout the disease course. Histopathology scores of inflammation, pannus formation and bone and cartilage erosions were conducted by a blinded investigator on toludine blue-stained cross sections of fixed leg joints from representative mice in vehicle and glycoside groups. Pathology scoring for each of the three categories are on a scale of 0-4 with grade 0=normal, 1=mild inflammation, hyperplasia of the synovial lining, cartilage destruction without bone erosion, grades 2 to 4=increasing degrees of inflammatory cell infiltrate, synovial hyperplasia, pannus formation and cartilage and bone destruction. Error bars represent SEM and statistics were performed using the Mann-Whitney test. At the endpoint, mice are bled and serum is collected from representative mice and stored at −80 C until use. To determine anti-collagen II antibody levels and to characterize isotype prevalence, bovine collagen II (Chondrex) was coated O/N at 4 C on an ELISA plate, washed and incubated with 100 uL of 1:10 dilution of each serum sample (in triplicate) for 2 h at RT. Wells were washed and incubated with anti-mouse IgM u-chain specific (Jackson), anti-mouse IgG1, or anti-mouse IgG2a (Southern Biotech) for 1 h at RT. The ELISA was developed and read using BD ELISA development kit. Statistical analysis was performed using the two-tailed ANOVA and asterisks represent P-values less than 0.01.

TNF, IL-6 and IL-1beta = assay: Serum cytokine ELISA in CIA treatment groups; type: in vivo; settings: serum from 3 mice per treatment group, ELISA in triplicate
Source text: FIG. 9. Serum cytokine levels are similar between vehicle and cardiac glycoside treatment groups. […] The unpaired student t-test was used to assess significance.

[4] = test system: TNF-mediated NFκB activity in HeLa cells; assay: NFκB luciferase reporter assay in TNF-stimulated HeLa cells; type: cell-based; settings: pre-treatment 6 hours with 0-500 nM, 50 ng/mL TNF
Procedure: FIG. 8. […] Values represent mean light units produced. Error bars represent SEM, and statistical significance was determined by unpaired T-test. Single and double asterisks represent P-values of 0.01 or 0.001, respectively. […] Samples were harvested at designated time points and were fractionated into nuclear and cytoplasmic lysates (Pierce). Lysates were quantified using BCA (Pierce), and were equally loaded according to total protein. Membranes were probed for levels of nuclear phospho-p65 (ReIA), phospho-ReIB, and histone (histone served as loading control and fractionation method control) and cytoplasmic degradation of IκBα (beta-tubulin served as loading control and fractionation method control).
HeLa cells were co-transfected with the reporter pNFκB-luc and control vector pTAL (Renilla) for 18 h prior to incubation with 0-500 nM cardiac glycoside for 6 h. Cells are stimulated with 50 ng/mL TNF. […] FIG. 8 B).

CD40 = molecular target: T1, CD40 (Mus musculus, UniProt P27512); type: cell-based, mice; settings: pre-treatment with 3.3 or 33 nM
T1 construct: Peritoneal and bone marrow-derived macrophages were isolated from CIA mice; endogenous in cells; host or cells: peritoneal and bone marrow-derived macrophages from CIA mice
T1 sequence (P27512 20-289): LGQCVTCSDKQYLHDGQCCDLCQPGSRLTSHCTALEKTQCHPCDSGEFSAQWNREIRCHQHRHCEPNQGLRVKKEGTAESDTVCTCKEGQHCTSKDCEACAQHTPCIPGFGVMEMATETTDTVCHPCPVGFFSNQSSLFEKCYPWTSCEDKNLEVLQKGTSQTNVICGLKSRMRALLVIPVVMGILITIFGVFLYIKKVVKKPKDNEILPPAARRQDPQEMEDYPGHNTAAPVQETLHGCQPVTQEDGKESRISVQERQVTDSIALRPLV
Procedure: (§1) Activity was monitored by ^3H-thymidine incorporation as a read-out for proliferation. […] Cell type(s) in the splenocyte population responsive to therapeutic concentrations of cardiac glycoside were determined by identifying the population of cells that responded to a dose-dependent decrease in activity in the presence of stimulant, defined as ligand(s) binding to cognate receptor(s). Activity was analyzed by: ^3H-thymidine or BrdU incorporation to monitor proliferation or by ELISA to monitor cytokine production. Splenic T lymphocytes were isolated by negative selection (MACS, Miltinyi Biotec) and are stimulated with PMA, ConA or through the TCR with anti-CD3/anti-CD28 Dynabeads (Invitrogen) and collagen II (all non-TNFR receptors/pathways). […] Peritoneal and bone marrow-derived macrophages were isolated from CIA mice in the presence of M-CSF growth factor and were stimulated with TNF and CD40 ligand (CD40L). […] Splenic B lymphocytes were isolated by negative selection (MACS, Miltinyi Biotec) and were stimulated with BAFF (BLyS), CD40L or through the BCR with anti-IgM u-chain specific antibodies.

TNFR = type: cell-based, mice; settings: pre-treatment with 3.3 or 33 nM
Procedure: as §1

[5] = Human, 3 × 0.5 mg/kg per diem, oral; Andersson, et al. (1975); cited from earlier work
[6] = injectable versus other formulations; cited from earlier work
erectile dysfunction = settings: 20 mg sublingual; cited from earlier work
[7] = daily i.p. from Mean Visual Score of 2, digitoxin 0.3 mg/kg, proscillaridin […], Mann-Whitney

| Compound | Mean Paw Thickness, treatment of established arthritis [1, 7] | Mean Visual Score, treatment of established arthritis [1, 7] | development of CIA (Mean Visual Arthritis Score, Mean Paw Thickness), prevention study ([1]; daily i.p. from the day prior to induction, digitoxin 0.3 mg/kg, ouabain 0.03 mg/kg, proscillaridin […]) | average clinical arthritis scores compared to vehicle, prevention study ([1]; first dose one day prior to boost, 0.3 mg/kg digitoxin, 0.03 mg/kg ouabain, […] proscillaridin, 0.35 mg/kg digoxin, […] bufalin, 15 mice per group) | prevention and treatment of collagen-induced arthritis (CIA) ([1]; murine model for rheumatoid arthritis, summary statement) | immune cell infiltrate into the joints (hematoxylin and eosin) [2] | anti-type II collagen IgG1 level relative to vehicle [3] | anti-type II collagen IgM level relative to vehicle [3] | Serum cytokine levels (TNF, IL-6 and IL-1beta) versus vehicle (TNF, IL-6 and IL-1beta) | TNF-mediated NFκB activation (luciferase light units) [4] | CD40L-mediated activation of macrophage through CD40 (CD40) | TNF-mediated activation of macrophage through TNFR (TNFR) | Serum conc. [5] [ng/mL] | bioavailability by formulation [6] | safety and efficacy of sublingual administration (erectile dysfunction) |
| --- | --- | --- | --- | --- | --- | --- | --- | --- | --- | --- | --- | --- | --- | --- | --- |
| C[C@@H]1O[C@@H](O[C@@H]2C=C3CC[C@@H]4[C@H](CC[C@]5(C)[C@@H](c6ccc(=O)oc6)CC[C@]45O)[C@@]3(C)CC2)[C@H](O)[C@H](O)[C@H]1O [Proscillaridin, proscillaridin A] | statistically significant reductions | statistically significant reductions | prevented the development of CIA | significantly reduced | potently prevent and treat | decreased amounts of immune cell infiltrate | reduced levels | reduced levels | similar | reduced TNF-mediated NFκB activation in a dose-dependent fashion | inhibits | inhibits | 0.75 | higher bioavailability with injectable formulations |  |
| CCCc1nn(C)c2c(=O)[nH]c(-c3cc(S(=O)(=O)N4CCN(C)CC4)ccc3OCC)nc12 [sildenafil] |  |  |  |  |  |  |  |  |  |  |  |  |  |  | safe and effective |
